Holding throughout (experiment): growth of human tumour cells (NCI), 48 h
Assay [1] relates to ACHN renal.
Assay [2] concerns CAKI-1 renal.
For assay [3], the system named is DU-145 prostate.
Assay [4] deals with HCT-116 colon.
The test system of assay [5] is IGROV1 ovarian.
The test system of assay [6] is LOX IMVI melanoma.
Assay [7] relates to OVCAR-8 ovarian.
The test system of assay [8] is SK-MEL-5 melanoma.
In assay [9] the test system is T-47D breast.
In assay [10] the test system is UACC-257 melanoma.

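Grown in 96-well plates, cells were treated for 48 hours with each compound at five concentrations. Insufficient inhibition: endpoint recorded as highest concentration tested. GI50 marks 50% less growth. TGI: total growth inhibition.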 Bounds are passed on as bounds.

Take `NCCOc1ccccn1`: the TGI in [1], in [2], in assay [3], in [4], in assay [5] and in assay [6] was greater than 100 µM each time. Besides, the TGI in assay [7], in assay [8], in assay [9] and in assay [10] was greater than 100 µM each time.
For `CC(=O)Nc1ccc(C(=O)N[C@@H]2C(=O)N3[C@@H]2SC(C)(C)[C@@H]3C(=O)O)cn1`, the TGI in assay [1], in [2], in [3], in [4], in [5] and in assay [6] was greater than 100 µM in each case. Also, the TGI in assay [7], in assay [8], in assay [9] and in assay [10] was greater than 100 µM in each case.
Take `Cn1cccc1-c1cc(-c2ccc(Br)cc2)nc(N)c1C#N`: the GI50 in assay [1] is greater than 100 µM; in assay [2] it was greater than 100 µM; in assay [3], greater than 100 µM; in assay [4], greater than 100 µM; in assay [5], 70 µM; in [6], greater than 100 µM. Further, the GI50 in assay [7], in assay [8], in assay [9] and in assay [10] was greater than 100 µM throughout. The TGI in assay [1], in assay [2], in assay [3], in assay [4], in [5] and in [6] was greater than 100 µM each time. The TGI in assay [7], in [8], in assay [9] and in assay [10] was greater than 100 µM each time.
Take `COc1ccc(C2CC(c3cc(OC)c(OC)c(OC)c3)=NN2)cc1` (centres undefined): the GI50 in [1] was 26.2 µM; in [2], 7.39 µM; in assay [3] it was 33.9 µM; in assay [4], 3.93 µM; in [5] it was 5.98 µM; in assay [6] it was 5.52 µM. Further, the GI50 is 28.4 µM in assay [7], 4.29 µM in assay [8], 3.61 µM in assay [9] and 43.4 µM in assay [10]. Moreover, the TGI in assay [1] is greater than 100 µM; in assay [2], 63.5 µM; in [3], greater than 100 µM; in [4], greater than 100 µM; in assay [5], greater than 100 µM; in [6], greater than 100 µM. The TGI was greater than 100 µM in [7], 17.8 µM in assay [8], greater than 100 µM in assay [9] and greater than 100 µM in assay [10].
For `CC(C)(C)c1ccc(-c2nnc(SCc3ccc(Cl)cc3)n2-c2cccc(C(F)(F)F)c2)cc1`, the TGI in assay [1], in assay [2], in [3], in [4], in [5] and in assay [6] was greater than 100 µM each time. Further, the TGI is greater than 100 µM in assay [7], greater than 100 µM in assay [8], greater than 100 µM in assay [9] and greater than 72.6 µM in [10].
As for `Cn1c(=O)c(Cc2ccc(F)cc2F)cc2cnc(NC3CCOCC3)nc21`, the GI50 was greater than 25 µM in assay [1]; greater than 19.4 µM in assay [2]; greater than 25 µM in assay [3]; greater than 25 µM in [4]; greater than 25 µM in assay [5]; greater than 25 µM in assay [6]. Moreover, the GI50 in assay [7] is greater than 25 µM; in assay [8], 11.8 µM; in assay [9] it was 9.47 µM; in [10], greater than 25 µM. For the same compound, the TGI in [1], in [2], in assay [3], in assay [4], in assay [5] and in [6] was greater than 25 µM throughout. Also, the TGI in [7], in [8], in assay [9] and in [10] was greater than 25 µM throughout.
For the compound `COC(=O)c1ccc2c(c1)nc(-c1ccc(Cl)cc1)n2-c1cc(C(C)(C)C)[nH]n1`, the GI50 was 3 µM in assay [1]; 2.25 µM in assay [2]; 3.69 µM in [3]; 3.46 µM in [4]; 3.64 µM in assay [5]; 3.7 µM in assay [6]. In addition, the GI50 was 7.33 µM in [7], 2.02 µM in [8], 3.64 µM in assay [9] and 4.97 µM in [10]. Moreover, the TGI in assay [1] was 9.34 µM; in assay [2] it was 12.8 µM; in [3], 25.1 µM; in assay [4], 12.3 µM; in [5], 25 µM; in assay [6], 14.5 µM. The TGI in assay [7] was 58.2 µM; in assay [8], 5.1 µM; in assay [9], greater than 100 µM; in [10] it was 22.9 µM.
Regarding `COc1cc2c(/C=C3\C(=O)Nc4ccc(Br)cc43)c(Cl)n(C)c2cc1C`, the GI50 in [1] is 2.26 µM; in assay [2] it was 2.26 µM; in assay [3], 2.04 µM; in assay [4], 1.61 µM; in assay [6], 1.44 µM; in [7], 5.12 µM. In addition, the GI50 in assay [8] was 1.41 µM; in assay [9], 30.8 µM; in assay [10] it was 7.56 µM. For the same compound, the TGI in [1] amounted to 11.2 µM; in assay [2], 7.3 µM; in assay [3], 4.36 µM; in [4] it was 7.17 µM; in assay [6], 6.7 µM; in assay [7], 20.3 µM. The TGI is 2.99 µM in assay [8], greater than 100 µM in [9] and 31 µM in [10].
With `O=[N+]([O-])c1ccc2[nH]cc(-c3c4ccccc4cc4[nH]c5ccc([N+](=O)[O-])cc5c34)c2c1`, the GI50 in assay [1] was 2.42 µM; in assay [2], 1.8 µM; in [3], 2.26 µM; in assay [4], 2.16 µM; in assay [5], 2.15 µM; in assay [6], 1.92 µM. The GI50 in assay [7] is 2.59 µM; in [8], 1.62 µM; in assay [9], 1.71 µM; in assay [10], 2.45 µM. In addition, the TGI was found to be 6.97 µM in assay [1]; 3.64 µM in [2]; 5.09 µM in assay [3]; 5 µM in [4]; 4.68 µM in [5]; 4.14 µM in [6]. Moreover, the TGI in [7] turned out to be 8.17 µM; in [8], 2.98 µM; in assay [9], 4.74 µM; in assay [10] it was 7.13 µM.
Take `CCN1C(=O)N(c2c(F)c(OC)cc(OC)c2F)Cc2cnc3[nH]c(CN4CCOCC4)cc3c21`: the GI50 was 1.02 µM in assay [1]; 0.528 µM in assay [2]; 1.99 µM in [3]; 1.84 µM in assay [4]; 1.44 µM in [5]; 2.37 µM in assay [6]. The GI50 in [7] was 3.98 µM; in assay [8] it was 16.9 µM; in [9] it was 3.04 µM; in [10], 4.69 µM. The TGI in assay [1] was 14.1 µM; in assay [2], greater than 100 µM; in assay [3], greater than 100 µM; in assay [4], 19.4 µM; in assay [5], greater than 100 µM; in [6], greater than 100 µM. The TGI in assay [7] is greater than 100 µM; in assay [8], greater than 100 µM; in assay [9] it was 25 µM; in assay [10], greater than 100 µM.
With `O=c1c2ccccc2nc(-c2ccc(Cl)cc2)n1O`, the TGI in assay [1] was 65 µM; in [2], greater than 100 µM; in [3], greater than 100 µM; in assay [4], greater than 100 µM; in assay [5] it was 9.61 µM; in assay [7] it was 48.4 µM. Moreover, the TGI in assay [8] was greater than 100 µM; in assay [9], greater than 100 µM; in assay [10] it was 88.2 µM.
As for `C=C1C(=O)O[C@H]2[C@H]1CC/C(Cn1cc(CCC)nn1)=C\CC[C@@]1(C)O[C@@H]21`, the GI50 in assay [1] was 3.81 µM; in [2], 3.91 µM; in assay [3] it was 4.32 µM; in assay [4] it was 3.98 µM; in [5], 4.63 µM; in assay [6] it was 3.9 µM. The GI50 in assay [7] was 13.5 µM; in assay [8], 15.3 µM; in assay [9], 4.11 µM. Also, the TGI in [1] was 15.6 µM; in [2], 16.2 µM; in assay [3], 16 µM; in [4], 14.4 µM; in assay [5], 20.2 µM; in assay [6] it was 16.9 µM. Moreover, the results for the TGI in assay [7], in [8] and in [9] were 29.8 µM, 29.6 µM and 21.3 µM, respectively.
Take `Fc1ccc(Nc2nc(Nc3ccc(-c4nc5ccccc5[nH]4)cc3)nc(N3CCCC3)n2)cc1`: the GI50 in assay [1] was 3.08 µM; in [2], 3.01 µM; in [3], 4.21 µM; in [4], 1.78 µM; in assay [6], 1.77 µM; in assay [7] it was 2.36 µM. Further, the results for the GI50 in assay [8] and in assay [9] were 11.8 µM and 2.28 µM, respectively. In addition, the TGI was 10.4 µM in assay [1]; 12.5 µM in assay [2]; 15.3 µM in assay [3]; 3.52 µM in assay [4]; 3.55 µM in assay [6]; 5.81 µM in [7]. Besides, the TGI in [8] was determined as 24.4 µM; in assay [9] it was 5.58 µM.
Regarding `O=C(NC(=S)NS(=O)(=O)c1ccc(N2N=C3c4ccccc4CC3C2c2cccs2)cc1)c1ccccc1` (centres undefined), the GI50 in assay [2] is 26.1 µM; in assay [3] it was 28.3 µM; in assay [5] it was 3.14 µM; in assay [6], 15.2 µM; in assay [7], 20.3 µM; in assay [8], 16.9 µM. Moreover, the values for the GI50 in assay [9] and in assay [10] were 69.6 µM and 42.8 µM, respectively. For the same compound, the TGI is 77.4 µM in [2]; greater than 100 µM in assay [3]; greater than 100 µM in assay [5]; 31.7 µM in assay [6]; greater than 100 µM in assay [7]; 46.5 µM in assay [8]. Further, the TGI in assay [9] and in [10] was greater than 100 µM each time.
For the compound `CC(C)[C@]12O[C@H]1[C@@H]1O[C@]13[C@]1(O[C@H]1C[C@H]1c4c(C(=O)c5ccccc5)oc(OC(=O)c5ccccc5)c4CC[C@@]13C)[C@@H]2O`, the GI50 in assay [1] was 0.0174 µM; in [2], 0.0183 µM; in assay [3] it was 0.0204 µM; in [4], 0.0142 µM; in assay [5] it was 0.028 µM; in assay [6], 0.0144 µM. Further, the GI50 in assay [7] was 0.0494 µM; in assay [9], 0.0281 µM; in assay [10], 0.0168 µM. The TGI is 20.7 µM in assay [1]; 50.2 µM in [2]; 15.3 µM in [3]; greater than 100 µM in [4]; 9.74 µM in assay [5]; 14.8 µM in assay [6]. For the same compound, the TGI was greater than 50.2 µM in assay [7], 0.916 µM in [9] and 0.0628 µM in assay [10].
On to `Cc1nc2cc(O)c(O)cc2cc1Oc1ccc(NC(=O)Nc2ccc(Cl)c(Cl)c2)cc1`, for which the GI50 in assay [1] was 3.37 µM; in assay [2], 4.96 µM; in [3], 7.26 µM; in [4], 2.24 µM; in assay [5], 12.3 µM; in assay [7], 5.77 µM. Further, the GI50 in assay [8] was 5.94 µM; in [9], 11.6 µM; in assay [10], 7.27 µM. For the same compound, the TGI in assay [1] is 17.9 µM; in [2], 30 µM; in assay [3], 25.2 µM; in assay [4], 13.6 µM; in assay [5], greater than 32.5 µM; in assay [7], greater than 32.5 µM. Moreover, the TGI in assay [8] is 14.2 µM; in assay [9] it was greater than 32.5 µM; in assay [10], 21.4 µM.
`C=C1C(=O)O[C@H]2[C@H]1CC/C(COC(=O)CCC(=O)OC/C1=C/CC[C@@]3(C)O[C@H]3[C@H]3OC(=O)C(=C)[C@@H]3CC1)=C\CC[C@@]1(C)O[C@@H]21`: the GI50 in [1] was 0.753 µM; in [3], 1.71 µM; in assay [5], 2.26 µM; in [6], 1.37 µM; in assay [7] it was 2.75 µM; in assay [8], 2.05 µM. Moreover, the results for the GI50 in assay [9] and in assay [10] were 1.06 µM and 1.52 µM, respectively. For the same compound, the TGI in [1] was found to be 2.03 µM; in assay [3], 3.53 µM; in assay [5] it was 8.83 µM; in assay [6] it was 2.75 µM; in assay [7], 10.4 µM; in [8] it was 5.27 µM. Moreover, the TGI was 3.67 µM in [9] and 3.39 µM in [10].
